Laboratory results reported in US4487771A, “C-3 Substituted 1,4-benzodiazepines and pharmaceutical utilization thereof” (Medosan Industrie Biochimiche Riunite, S.p.A., priority 1983, dated 1984).

Key:
[1] = Anti-pentylenetetrazol; assay type: in vivo; conditions: oral, 30 minutes before pentylenetetrazol treatment 130 mg/kg s.c.
Description: (§1) The pharmacologic activity of the compounds of the invention has been assessed by the following classical tests which are known to indicate useful therapeutic activities:
Anti-pentylenetetrazol (L. O. Randall, W. Schallek, G. A. Heise, E. F. Keith and R. Bagdon: J. Pharmacol. Exp. Therapeutics, 129, 163-171, 1960).
(§2) Main neuropharmacological effects of substituted benzodiazepine in oral
^a 30 minutes before pentylenetetrazol treatment 130 mg/kg s.c.

[2] = Spontaneous Motor Activity; assay type: in vivo; conditions: 0.5 h; oral; 30 minutes period starting 30 minutes after drug treatment; reduces movements counts 50 percent of control activity in group of 4 animals; read-out: Spontaneous Motor Activity DE50
Description: as §1
Spontaneous Motor Activity (W. J. Kinnard and C. J. Carr: J. Pharmacol. Exp. Therapeutics, 121, 354-361, 1957.)
as §2
^e measured in 30 minutes period starting 30 minutes after drug
^(xxx) Reduces movements counts 50 percent of control activity in
group of 4 animals: 5 groups/dose.

[3] = Analgesic; assay type: in vivo; conditions: oral, prolongs reaction time 50 percent of control group in 50 percent of treated animals, read-out: Analgesic DE50
Description: as §1
Analgesic (N. B. Eddy and D. Leimbach: J. Pharmacol. Exp. Therapeutics, 107, 385-393, 1953.)
as §2
^c at 240 minutes after drug treatment.
^c' at 60 minutes after drug treatment.
^(x) Prolongs reaction time 50 percent of control group in 50 percent

[4] = Miorelaxation; assay type: in vivo; conditions: oral, reduces "falling time" 50 percent of control group in 50 percent of treated animals, read-out: Miorelaxation DE50
Description: as §1
Miorelaxation (N. W. Dunham and T. S. Miya: J. Am. Pharm. Ass., 46, No. 3, 208-209, 1957.)
as §2
^d at 120 minutes after drug treatment.
^d' at 60 minutes after drug treatment.
^(xx) Reduces "falling time" 50 percent of control group in 50 percen

[5] = Toxicity test, LD50 mice p.os; conditions: mouse, in vivo, po
Description: |Compound LD50 mice p. os in mg/kg

[6] = Anti-ECS; assay type: in vivo; conditions: oral, 60 minutes before ECS
Description: as §1
ECS (E. A. Swinyard, W. C. Brown and L. S. Goodman: J. Pharmacol. Exp. Therapeutics, 106, 319-330, 1952.)
as §2
^b 60 minutes before ECS.

[7] = convulsions, read-out: Anti-pentylenetetrazol, Convulsions DE50
[8] = death, read-out: Anti-pentylenetetrazol, Death DE50
[9] = 4 h, at 240 minutes after drug treatment
[10] = 2 h, at 120 minutes after drug treatment
[11] = convulsions, read-out: Anti-ECS, Convulsions DE50
[12] = death, read-out: Anti-ECS, Death DE50

CC(=O)NCCCC(=O)OC1N=C(c2ccccc2Cl)c2cc(Cl)ccc2NC1=O (centres unmarked) [Example 3, 3-(4-acetamido)butyryloxy-7-chloro-5-o-chlorophenyl-1,3-dihydro-2H-1,4-benzodiazepine-2-one]
ED50 [1, 7]: 2.6 mg/kg
ED50 [1, 8]: 0.15 mg/kg
ED50 [2]: 0.18 mg/kg
ED50 [3, 9]: 42 mg/kg
ED50 [4, 10]: 4.2 mg/kg
LD50 [5]: 1200 mg/kg
ED50 [6, 11]: 4.6 mg/kg
ED50 [6, 12]: 0.02 mg/kg

O=C1Nc2ccc(Cl)cc2C(c2ccccc2)=NC1O (centres unmarked) [Oxazepam, reference compound]
ED50 [1, 7]: 20 mg/kg
ED50 [1, 8]: 5.5 mg/kg
ED50 [2]: 4.2 mg/kg
ED50 [3, 9]: 28 mg/kg
ED50 [4, 10]: 25 mg/kg
LD50 [5]: > 1500 mg/kg
ED50 [6, 11]: 40 mg/kg
ED50 [6, 12]: 4 mg/kg

CC(=O)NCCCC(=O)OC1N=C(c2ccccc2Cl)c2cc(Cl)ccc2N(C)C1=O (centres unmarked) [Example 6, 3-(4-acetamido)-butyryloxy-7-chloro-5-o-chlorophenyl-1,3-dihydro-1-methyl-2H-1,4-benzodiazepine-2-one]
ED50 [1, 7]: 0.2 mg/kg
ED50 [1, 8]: 0.16 mg/kg
ED50 [2]: 1.9 mg/kg
ED50 ([3]; 1 h, at 60 minutes after drug treatment (c')): 19 mg/kg
ED50 ([4]; 1 h, at 60 minutes after drug treatment (d')): 2 mg/kg
LD50 [5]: > 1000 mg/kg
ED50 [6, 11]: 5.5 mg/kg
ED50 [6, 12]: 0.032 mg/kg

CC(=O)NCC(=O)OC1N=C(c2ccccc2)c2cc(Cl)ccc2NC1=O (centres unmarked) [Example 5, 3-acetamido-acetoxy-7-chloro-1,3-dihydro-5-phenyl-2H-1,4-benzodiazepine-2-one]
ED50 [1, 7]: 6 mg/kg
ED50 [1, 8]: 1.5 mg/kg
ED50 [2]: 0.7 mg/kg
ED50 [3, 9]: 34 mg/kg
ED50 [4, 10]: 15 mg/kg
LD50 [5]: 1400 mg/kg
ED50 [6, 11]: 12 mg/kg
ED50 [6, 12]: 0.32 mg/kg

CC(=O)NCCCC(=O)OC1N=C(c2ccccc2)c2cc(Cl)ccc2NC1=O (centres unmarked) [Example 1, 3-(4-acetamido)butyryl-oxy-7-chloro-1,3-dihydro-5-phenyl-2H-1,4-benzodiazepine-2-one]
ED50 [1, 7]: 7 mg/kg
ED50 [1, 8]: 4 mg/kg
ED50 [2]: 9 mg/kg
ED50 [3, 9]: 26 mg/kg
ED50 [4, 10]: 6.5 mg/kg
LD50 [5]: 1500 mg/kg
ED50 [6, 11]: 38 mg/kg
ED50 [6, 12]: 0.22 mg/kg

CC(C)(C)OC(=O)NCCCC(=O)OC1N=C(c2ccccc2)c2cc(Cl)ccc2NC1=O (centres unmarked) [Example 2, 7-chloro-1,3-dihydro-5-phenyl-3-(4-tertiary-butoxycarbonylamino)butyryloxy-2H-1,4-benzodiazepine-2-one]
ED50 [1, 7]: 14 mg/kg
ED50 [1, 8]: 7 mg/kg
ED50 [2]: 2.6 mg/kg
ED50 [3, 9]: 42 mg/kg
ED50 [4, 10]: 16 mg/kg
LD50 [5]: > 1500 mg/kg
ED50 [6, 11]: 60 mg/kg
ED50 [6, 12]: 1 mg/kg

CC(=O)NCCCC(=O)OC1N=C(c2ccccc2)c2cc(Cl)ccc2N(C)C1=O (centres unmarked) [Example 4, 3-(4-acetamido)butyryloxy-7-chloro-1,3-dihydro-1-methyl-5-phenyl-2H-1,4-benzodiazepine-2-one]
ED50 [1, 7]: 5 mg/kg
ED50 [1, 8]: 2.2 mg/kg
ED50 [2]: 1.9 mg/kg
ED50 [3, 9]: 30 mg/kg
ED50 [4, 10]: 19 mg/kg
LD50 [5]: 1000 mg/kg
ED50 [6, 11]: 4 mg/kg
ED50 [6, 12]: 0.7 mg/kg
